Key:
Balb/c mice = test: LPS induced endotoxemia in Balb/c mice, total nitrite in plasma; type: in vivo
Description: The HPLC purified lead compound was suspended in phosphate buffered saline (PBS) at a concentration of 20 mg/ml for in vivo experiment. Balb/c mice, 6 to 8 week of age, weighing 23-25 g, were housed in micro-barrier cages on sterile bedding and fed ad libitum water and food. The animals were divided into three groups containing 6 mice in each group. Four milligrams (160 mg/kg body weight) of the isolated lead compound was administered intra-peritoneally (i.p.) 2 hours prior to LPS challenge. After 2 hours 150 μg LPS was injected i.p., and the mice were kept for 8 hours. In negative control mice, PBS was injected whereas, only LPS injected mice were used as positive control. After 8 hours of LPS injection, the blood was collected in ACD buffer from each mouse by retro-orbital puncture. The blood samples were immediately centrifuged and the plasma samples were collected and stored at −20° C. till nitrite assay. The plasma samples were then diluted 1:1 using 1× reaction buffer (total nitrite estimation kit, R & D systems, USA) and protein from the plasma was removed using 10 kDa centricon (Centricon, USA). Then protein free plasma samples were used for total nitrite estimation (NO^2−+NO^3−) using the same kit.
The Balb/c mice were used to validate the in vivo effect of the active compound on endotoxin induced inflammation by LPS. Balb/c mice, 6 to 8 week of age, weighing 23-25 g, were housed in micro-barrier cages on sterile bedding and fed ad libitum water and food. The animals were divided into three groups containing 6 mice in each group. Four milligrams (160 mg/kg body weight) of the active compound was preinjected intra-peritonially (i.p.) into the mice for two hours and then LPS (150 μg) was injected i.p. and left for eight hours. […] The plasma from the blood samples were collected by centrifuging at […] for 10 minutes and stored at −80° C. till nitric oxide was analyzed using Griess nitrite assay. The total nitrite in the plasma samples were detected using nitric oxide (NO^2−/NO^3−) assay kit (R & D systems, USA). […]

[1] = system: murine macrophage cells (J774); test: Cytotoxicity assay using MTT; type: cell-based; conditions: for Cell viability (%): J774, MTT
Description: The murine macrophage cells were plated in cell culture plates and then treated with or without the crude extract/ethyl ether fraction/purified compound. The cells were then washed and challenged with LPS (1 μg/ml) for 16 hours. The MTT (5 mg/ml in PBS) was then added and the cells were further incubated for 4 hours at 37° C. in CO2 incubator. MTT solubilization buffer was then added and absorbance at 590 nm was determined.

inos gene = test: RT-PCR analysis for inos gene expression; type: cell-based, murine
Description: The murine macrophage cells were preincubated with the test extract, ethyl ether fraction and the compound for 2 hours (as mentioned above), washed and then challenged with LPS for 4 hours. After the incubation period the cells were washed with phosphate buffered saline (PBS), scraped and then pelleted by centrifugation. The total RNA from the pelleted cells was isolated using EZ-RNA isolation kit (Biological industries) using vendor recommended protocol. Then, cDNA was prepared from the total RNA using single strand cDNA synthesis kit (Clontech, USA) and the expression of inos gene was estimated using gene specific primers for inos gene.
The murine macrophage cells (J774) were challenged with LPS at a concentration of 1 μg/ml with and without the four test fractions obtained in Example III for 4 hours at 37° C. in the humidified incubator with 5% CO2. The cells were harvested and were used to isolate the total RNA using (RNA isolation kit, Qiagen). The RNA was quantified spectrophotometrically and 2 μg of total RNA from each sample was used for cDNA synthesis (cDNA synthesis kit, Clontech). Gene specific PCR for the inducible nitric oxide synthase (inos) and glyceraldehyde-3-phosphatedehyrogenase (G3PDH) as house keeping gene was performed. Primer sequences were designed from cDNA sequences of the specific gene (www:ncbi.nlm.nih.gov/locuslink) using DNASTAR software. […]

[2] = system: nitric oxide production in murine macrophage cells (J774); test: Nitric oxide assay using Griess nitrite assay in LPS-challenged macrophages; type: cell-based
Description: Murine macrophage cell line (J-774) was used to check the anti-inflammatory effects of the extract, sub-fractions and the isolated active compounds. The macrophages are cultured in Dulbeccos Modified Eagles Medium (DMEM) supplemented with antibiotic and antimycotic solution and 10% fetal calf serum at 37° C. in a CO2 incubator (5%). The cell viability was measured using the Trypan blue exclusion method. For inducing the inflammatory conditions the cell were stimulated with LPS (1 μg/ml) and the effect of the compounds on the inflammatory condition was assessed by measuring the inflammatory mediator, nitric oxide and the respective inos gene expression by the murine macrophages.
The murine macrophage cells release nitric oxide along with other pro-inflammatory molecules, when stimulated with LPS. The cells were preincubated with the crude extract (300 and 500 μg/ml), ethyl ether fraction (50, 100, 150 μg/ml), the isolated active compound (5, 10, 20 μg/ml) and rutin (20, 40, 80 μM) for 2 hours and then challenged with LPS (1 μg/ml) for 16 hours. After 16 hours the cell supernatant was used to measure the nitric oxide production as nitrite using Griess nitrite assay (Lee et al., 2003, Life Science 73, 1401-1412). Equal amount of cell supernatant was incubated with Griess reagent for 10 minutes at room temperature and the magenta color developed was measured using spectrophotometer.
Each of the four fractions obtained in Example III were then used in different concentrations (50 μg/ml, 100 µg/ml and 150 μg/ml) for their effect on nitric oxide inhibition in vitro. Murine macrophages (J774) were maintained in DMEM medium, 37° C. in CO2 incubator (5% CO2). The cells were harvested and challenged with LPS (Sigma) at a concentration of 1 μg/ml with and without the four test fractions obtained in Example III for 16 hours at 37° C. in the humidified incubator with 5% CO2. After 16 hours the cell free supernatant was collected and the nitric oxide production was measured as described by Lee et al. Briefly 100 μl of supernatant samples were incubated for 10 min at room temperature with an equal volume of Griess reagent (0.1% naphthalene diamine dihydrochloride, 1% sulfanilamide in 5% H2SO4) in microtitre plate. The absorbance at 550 nm was measured. Sodium nitrite was used as the standard.

## C=CC(C)(C)c1cc2cc(O)ccc2oc1=O [Rg-001, 3-(1,1-dimethyl-allyl)-6-hydroxy-chromen-2-one]
Balb/c mice; 160 mg/kg body weight i.p. 2 hours prior to LPS (150 μg), blood after 8 hours
  inhibition of total nitrite in the plasma samples: > 75%
Balb/c mice; 160 mg/kg i.p., 8 hours after LPS, compared to the LPS challenged mice
  behavioral condition of treated mice: normal behavioral condition
Balb/c mice; effective dose of 40 mg/kg to 160 mg/kg body weight
  in-vivo inflammation (NO inhibition): 60% to 80
[1]; 5 μg (21.74 μM)
  Cell viability (%): >85%
[1]; 10 μg (43.5 μM)
  Cell viability (%): >85%
[1]; 20 μg (87 μM)
  Cell viability (%): >85%
[1]; 20 μg (87 μM), listed as 3-(1,1-dimethyl-allyl)-6-hydroxy-chromen-2-one
  Cell viability (%): > 85%
[1]; all the doses ranging from 20 to 100 μg/ml
  cell viability: > 85%
[1]; highest concentration 50 μg i.e. 217.5 μM, MTT
  viability of macrophage cells: > 85%
Inos gene
  inhibition of inos gene: 70%
Inos gene; J774, LPS challenge
  effect on inos gene expression: inhibit the gene expression significantly
[2]; 5 μg (21.74 μM), J774, LPS 1 μg/ml 16 h, 21.74 µM
  Nitric oxide inhibition (%): 25.4%
[2]; 20 μg (87 μM), J774, LPS 1 μg/ml 16 h, 87 µM
  Nitric oxide inhibition (%): 63.5%
[2]; 5, 10 and 20 μg/ml, J774, LPS
  inhibition of nitric oxide production: significant inhibition
[2]; Mus musculus, J774, 16 h, 5 μg (21.74 μM), J774, LPS 1 μg/ml 16 h
  inhibition at 21.74 µM: 25%
[2]; Mus musculus, J774, 16 h, 10 μg (43.5 μM), J774, LPS 1 μg/ml 16 h
  inhibition at 43.5 µM: 40%
[2]; Mus musculus, J774, 16 h, 20 μg (87 μM), J774, LPS 1 μg/ml 16 h
  inhibition at 87 µM: 70%

## C[C@@H]1O[C@@H](OC[C@H]2O[C@@H](Oc3c(-c4ccc(O)c(O)c4)oc4cc(O)cc(O)c4c3=O)[C@H](O)[C@@H](O)[C@@H]2O)[C@H](O)[C@H](O)[C@H]1O [Rutin, reference compound]
[1]; 12.2 μg (20 μM)
  Cell viability (%): >85%
[1]; 24.4 μg (40 μM)
  Cell viability (%): >85%
[1]; 48.8 μg (80 μM)
  Cell viability (%): ≦75%
[2]; Mus musculus, J774, 16 h, 12.2 μg (20 μM), J774, LPS 1 μg/ml 16 h
  inhibition at 20 µM: 11%
[2]; Mus musculus, J774, 16 h, 24.4 μg (40 μM), J774, LPS 1 μg/ml 16 h
  inhibition at 40 µM: 20.6%
[2]; Mus musculus, J774, 16 h, 48.8 μg (80 μM), J774, LPS 1 μg/ml 16 h
  inhibition at 80 µM: 27%

— patent US20080227854A1, “Compound 3-(1, 1-Dimethyl-Allyl)-6-Hydroxy-Chromen-2-One and its Pharmaceutically Acceptable Salts Thereof” (COUNCIL OF SCIENTIFIC & INDUSTRIAL RESEARCH, priority 2007, published 2008)
